Laboratory results from patent US11660331B2, “Heroin vaccine” (THE SCRIPPS RESEARCH INSTITUTE, priority 2017, dated 2023).

Test system: anti-heroin polyclonal antibodies from Group G6
Assay: SPR competitive binding assay, Her-BSA-loaded sensor chip (Biacore 3000)
Design: species or system mouse
Settings: sera from Group G6 (vaccine stored as liquid at RT for 30 days)

Compound: CN1CC[C@]23c4c5ccc(O)c4O[C@H]2[C@@H](O)C=C[C@H]3[C@H]1C5 [morphine]
- cross-reactivity to the polyclonal antibodies: low cross-reactivity
